In brackets after ≈: the same amount, converted by molar mass.
Columns and labels:
MDA-MB-231 = experiment: In vitro cytotoxicity MTT assay; assay type: cell-based, human; details: Homo sapiens, MDA-MB-231, 72 h, IC50 ± SD
Procedure: (§1) Six different cell lines were used, including human breast cancer cell line MDA-MB-231 (6×10^3), MDA-MB-453 (2.4×10^4), SK-BR-3 (6×10^3), human breast epithelial cell line M10 (6×10^3), human gastric carcinoma NCI-N87 (2.4×10^4), and human colorectal adenocarcinoma SW48 (2.4×10^4), and seeded in a 96 well plate. Cell lines were obtained from Bioresource Collection and Research Center, BCRC, Taiwan. […] After 72 h, MTT assay (Cayman™) was used to determine the cellular viability.

M10 = experiment: In vitro cytotoxicity MTT assay; assay type: cell-based, human; details: Homo sapiens, M10, 72 h, IC50 ± SD
Procedure: as §1

MDA-MB-453 = experiment: In vitro cytotoxicity MTT assay; assay type: cell-based, human; details: Homo sapiens, MDA-MB-453, 72 h, IC50 ± SD
Procedure: as §1

SW48 = experiment: In vitro cytotoxicity MTT assay; assay type: cell-based, human; details: Homo sapiens, SW48, 72 h, IC50 ± SD
Procedure: as §1

Saturation solubility = assay type: physicochemical; details: ddH2O, 25° C., mean ± SD, BDL: Below detection limit
Procedure: Samples of 5 mg of compounds were added to 5 ml volumetric flasks containing ddH2O and shaken at 100 rpm in an incubator at 25° C. for 90 minutes. The resulting suspension was filtered through a 0.22 μm filter. The concentrations of compounds were determined spectrophotometrically at 256 nm. The saturation solubility of each sample was determined in triplicates and the mean value and standard deviation were reported.

SK-BR-3 = experiment: In vitro cytotoxicity MTT assay; assay type: cell-based; details: Homo sapiens, 72 h, IC50 ± SD
Procedure: as §1

HDAC3 [1] = molecular target: T1, HDAC3 (Homo sapiens (Human), UniProt O15379); experiment: HDAC3 enzymatic kinetic assay; assay type: biochemical; details: 2 μM; 20 min, 40 min and 60 min
Procedure: (§2) HDAC3 enzymatic kinetic assay was performed according to standard Protocols (Fluorgenic HDAC3 assay kit, BPS Bioscience™). […] After incubation, assay developer was added to the samples and the absorbance was read at fluorogenic wavelength. The relative inhibition to HDAC3 activity in each sample was determined.

HDAC1 = HDAC1 (Homo sapiens (Human), UniProt Q13547); experiment: HDACs 1, 2, and 3 enzymatic inhibition (fluorogenic kit, 1 h); assay type: biochemical; details: 37° C.
Procedure: as §2, with “HDACs” for “HDAC3 enzymatic kinetic”, “HDACs 1, 2, and 3” for “HDAC3”, “1 h,” for “incubation,”, “HDACs 1, 2, and 3 activities” for “HDAC3 activity”

HDAC2 = HDAC2 (Homo sapiens (Human), UniProt Q92769); experiment: as above; assay type: biochemical; details: 37° C.
Procedure: as §2, with “HDACs” for “HDAC3 enzymatic kinetic”, “HDACs 1, 2, and 3” for “HDAC3”, “1 h,” for “incubation,”, “HDACs 1, 2, and 3 activities” for “HDAC3 activity”

HDAC3 [2] = molecular target: T1, HDAC3; experiment: as above; assay type: biochemical; details: 37° C.
Procedure: as §2, with “HDACs” for “HDAC3 enzymatic kinetic”, “HDACs 1, 2, and 3” for “HDAC3”, “1 h,” for “incubation,”, “HDACs 1, 2, and 3 activities” for “HDAC3 activity”

NCI-N87 = experiment: In vitro cytotoxicity MTT assay; assay type: cell-based; details: Homo sapiens, 72 h, IC50 ± SD
Procedure: as §1

[3] = system: histone H3 acetylation (AcH3) in SW48 cells; experiment: Western blot of histone H3 acetylation; assay type: cell-based, human; details: SW48, 24 h, FIG. 12c
Procedure: Human breast cancer MDA-MB-231 cells and human colorectal adenocarcinoma SW48 cells were analyzed. MDA-MB-231 and SW48 were obtained from Bioresource Collection and Research Center (BCRC, Taiwan). MDA-MB-231 and SW48 were grown at 37° C. under humidified air supplemented without CO2 in Leibovitz's L-15 (cat. #11415114, Thermo Fisher Scientific) containing 10% heat inactivated fetal calf serum (Thermo Scientific), 1× concentration of MycoZap antibiotics (cat. #VZA-2011, Lonza). Cells were treated with GNTbm compounds series, Chidamide or Entinostat for different time periods or at varied doses. Cells were treated with indicated doses for 24 h or cells were treated with indicated doses for different time periods. Cell pellets were dissolved with RIPA buffer (cat. #20-188, Merck) with protease and phosphatase inhibitors (cat. #K272, BioVision) and clarified by centrifugation. Equal amounts of total protein were resolved by SDS-PAGE and transferred to polyvinylidene fluoride membranes (cat. #1620177, BIO-RAD). Blots were incubated with primary antibodies against β-actin (cat. #sc-47778, Santa Cruz Biotechnology), Histone 3ac (cat. #61637, Active Motif), and HRP secondary antibodies anti-rabbit (ab6721, Abcam) and anti-mouse (sc-2005, Santa Cruz). Blots were developed using the ECL Western Blotting Substrate (cat. #sc-2048, Santa Cruz Biotechnology) Image blots were analyzed with the iBright FL1000 (Thermo Fisher Scientific) imaging systems.

SW48 cells [4] = experiment: Cell cycle arrest by PI flow cytometry; assay type: cell-based, human; details: for Percentage of Cell Cycle Distribution G0/G1 / Percentage of Cell Cycle Distribution G2/M / Percentage of Cell Cycle Distribution S: 72 h; for Cell cycle arrest: SW48, doses of Table 12
Procedure: (§3) A PI/RNase staining assay (BD Bioscience™) was performed to reveal the presence of cell cycle arrest and apoptotic cells after treatment with GNTbm compounds, Chidamide and Entinostat. […] After treatment cells were harvested, fixed with 80% ethanol for 24 h, washed with 1×PBS and stained with PI/RNase for 15 min at room temperature. The cells were then analyzed using Flow Cytometer within 1 h.

SW48 cells [5] = experiment: Cell apoptosis (sub-G1) by PI flow cytometry; assay type: cell-based, human; details: 72 h; for Induction of apoptosis: SW48, indicated doses (Table 13)
Procedure: as §3

HDAC1, sequence (Q13547 whole entry): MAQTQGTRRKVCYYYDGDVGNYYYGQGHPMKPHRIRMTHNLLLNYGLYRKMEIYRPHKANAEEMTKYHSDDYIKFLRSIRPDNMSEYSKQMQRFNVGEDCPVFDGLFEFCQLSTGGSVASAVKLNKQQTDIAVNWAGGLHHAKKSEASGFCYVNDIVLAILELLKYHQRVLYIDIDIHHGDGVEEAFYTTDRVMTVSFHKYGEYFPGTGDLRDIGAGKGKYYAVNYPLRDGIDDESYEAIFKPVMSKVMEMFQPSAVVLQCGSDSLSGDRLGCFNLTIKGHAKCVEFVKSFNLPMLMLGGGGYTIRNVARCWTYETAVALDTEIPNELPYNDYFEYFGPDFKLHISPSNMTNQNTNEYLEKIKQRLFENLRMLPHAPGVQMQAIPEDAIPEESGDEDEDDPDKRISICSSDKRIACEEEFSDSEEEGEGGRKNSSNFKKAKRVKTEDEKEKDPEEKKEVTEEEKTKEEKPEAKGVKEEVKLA
HDAC2, sequence (Q92769 whole entry): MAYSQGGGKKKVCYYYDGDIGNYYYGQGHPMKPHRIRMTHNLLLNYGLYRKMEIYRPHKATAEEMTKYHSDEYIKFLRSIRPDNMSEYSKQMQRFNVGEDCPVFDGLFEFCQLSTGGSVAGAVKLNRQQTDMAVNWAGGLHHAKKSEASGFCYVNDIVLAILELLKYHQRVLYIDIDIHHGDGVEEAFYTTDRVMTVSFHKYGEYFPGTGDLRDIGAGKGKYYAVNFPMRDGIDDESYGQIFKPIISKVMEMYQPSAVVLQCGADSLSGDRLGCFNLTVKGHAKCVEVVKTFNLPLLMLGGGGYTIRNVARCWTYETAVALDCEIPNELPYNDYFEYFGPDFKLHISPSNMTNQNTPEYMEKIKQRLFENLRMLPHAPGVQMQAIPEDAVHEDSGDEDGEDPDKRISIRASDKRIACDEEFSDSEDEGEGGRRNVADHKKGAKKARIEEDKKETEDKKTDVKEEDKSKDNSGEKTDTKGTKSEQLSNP
T1 sequence (O15379 whole entry): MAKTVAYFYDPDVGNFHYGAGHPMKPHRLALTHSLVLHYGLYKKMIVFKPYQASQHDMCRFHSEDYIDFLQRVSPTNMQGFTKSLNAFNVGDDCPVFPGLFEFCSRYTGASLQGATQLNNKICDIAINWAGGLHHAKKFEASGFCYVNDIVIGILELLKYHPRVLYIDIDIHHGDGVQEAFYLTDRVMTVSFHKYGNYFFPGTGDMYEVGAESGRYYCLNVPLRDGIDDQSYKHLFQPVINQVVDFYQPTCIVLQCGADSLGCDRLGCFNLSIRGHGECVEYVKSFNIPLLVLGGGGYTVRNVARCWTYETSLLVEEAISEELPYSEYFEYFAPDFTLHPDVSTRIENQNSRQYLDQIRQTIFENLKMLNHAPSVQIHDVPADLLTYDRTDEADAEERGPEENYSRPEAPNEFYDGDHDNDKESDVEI
T1 sequence (Q9Y618 395-489 partner): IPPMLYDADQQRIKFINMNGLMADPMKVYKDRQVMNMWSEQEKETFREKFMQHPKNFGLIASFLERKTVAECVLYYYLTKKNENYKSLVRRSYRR

IC50 (HDAC1)	IC50 (HDAC2)	IC50 (HDAC3 [2])	Structure (SMILES)	IC50 (MDA-MB-231)	IC50 (M10)	IC50 (MDA-MB-453)	IC50 (SW48)	IC50 (NCI-N87)	Histone 3 acetylation expression versus Chidamide [3]	Percentage of Cell Cycle Distribution G0/G1 (SW48 cells [4]; SW48, 0.125 μM)	Percentage of Cell Cycle Distribution G2/M (SW48 cells [4]; SW48, 0.125 μM)	Percentage of Cell Cycle Distribution S (SW48 cells [4]; SW48, 0.125 μM)	Percentage of Cell Cycle Distribution G0/G1 (SW48 cells [4]; SW48, 0.5 μM)	Percentage of Cell Cycle Distribution G2/M (SW48 cells [4]; SW48, 0.5 μM)	Percentage of Cell Cycle Distribution S (SW48 cells [4]; SW48, 0.5 μM)	Percentage of Cell Cycle Distribution G0/G1 (SW48 cells [4]; SW48, 1 μM)	Percentage of Cell Cycle Distribution G2/M (SW48 cells [4]; SW48, 1 μM)	Percentage of Cell Cycle Distribution S (SW48 cells [4]; SW48, 1 μM)	Percentage of Cell Cycle Distribution G0/G1 (SW48 cells [4]; SW48, 2 μM)	Percentage of Cell Cycle Distribution G2/M (SW48 cells [4]; SW48, 2 μM)	other results
560 ± 40 nM	510 ± 50 nM	670 ± 60 nM	Cc1ccc(/C=C/CC(=O)Nc2ccc(C(=O)Nc3ccc(F)cc3N)cc2)cn1 [GNTbm-03, 4-((E)-4-(6-methylpyridin-3-yl)but-3-enamido)-N-(2-amino-4-fluorophenyl)benzamide]	26700 ± 5800 nM	6100 ± 134 nM	1810 ± 8 nM	5260 ± 900 nM	–	–	–	–	–	–	–	–	–	–	–	–	–	Saturation Solubility (Saturation solubility; 90 minutes): BDL; IC50 (SK-BR-3): 4070 ± 680 nM; Inhibition of HDAC 3 enzyme activities (kinetics) (HDAC3 [1]): stronger inhibition of HDAC 3 enzyme activities than GNTbm-01
380 ± 40 nM	540 ± 7 nM	200 ± 100 nM	Nc1cc(F)ccc1NC(=O)c1ccc(NC(=O)C/C=C/c2cccnc2)cn1 [GNTbm-04, 5-((E)-4-(pyridin-3-yl)but-3-enamido)-N-(2-amino-4-fluorophenyl)pyridine-2-carboxamide]	1640 ± 4 nM	1810 ± 60 nM	1590 ± 3 nM	600 ± 90 nM	340 ± 40 nM	more potent in inducing the histone 3 acetylation expression in SW48 cells than Chidamide	56.9%	25.2%	17.9%	63.2%	19.3%	17.5%	67.2%	18.9%	13.9%	70.5%	18.7%	solubility at 90 min (Saturation solubility; water, thermodynamic from solid): 7.2 µg/mL (≈ 18.4 µM); Percentage of Cell Cycle Distribution S (SW48 cells [4]; SW48, 2 μM): 10.8%; Cell cycle arrest (SW48 cells [4]): significant induced cell cycle arrest in G0/G1 phase in SW48 cells; Percentages of Cell Apoptosis (SW48 cells [5]; SW48, 0.125 μM): 2.9%; Percentages of Cell Apoptosis (SW48 cells [5]; SW48, 0.5 μM): 10.8%; Percentages of Cell Apoptosis (SW48 cells [5]; SW48, 1 μM): 20.8%; Percentages of Cell Apoptosis (SW48 cells [5]; SW48, 2 μM): 32%; Induction of apoptosis (SW48 cells [5]): potent in inducing apoptosis in SW48 cells
3700 ± 40 nM	680 ± 30 nM	890 ± 130 nM	Nc1cc(F)ccc1NC(=O)c1ccc(NC(=O)C/C=C/c2cccnc2)cc1 [GNTbm-39, 4-((E)-4-(pyridin-3-yl)but-3-enamido)-N-(2-amino-4-fluorophenyl)benzamide]	2930 ± 450 nM	1960 ± 20 nM	1840 ± 20 nM	1730 ± 10 nM	640 ± 30 nM	more potent in inducing the histone 3 acetylation expression in SW48 cells than Chidamide	57.2%	22.3%	20.5%	58.8%	24.7%	16.5%	46.5%	32.8%	20.7%	42.3%	38.9%	Percentage of Cell Cycle Distribution S (SW48 cells [4]; SW48, 2 μM): 18.8%; Cell cycle arrest (SW48 cells [4]): significantly induced cell cycle arrest in the G2/M phase in SW48 cells; Percentages of Cell Apoptosis (SW48 cells [5]; SW48, 0.125 μM): 9.5%; Percentages of Cell Apoptosis (SW48 cells [5]; SW48, 0.5 μM): 17.8%; Percentages of Cell Apoptosis (SW48 cells [5]; SW48, 1 μM): 25.4%; Percentages of Cell Apoptosis (SW48 cells [5]; SW48, 2 μM): 37.8%; Induction of apoptosis (SW48 cells [5]): potent in inducing apoptosis in SW48 cells
